In article PMC6468747 (Cancers, 2019):
Where two headings read alike, the source gives them in different places.

Experiments:
[1] = test system: Br-001 xenograft tumors; assay: Patient-derived TNBC xenograft (PDX), PO, racemate vs E1; assay type: in vivo, NSG mice; details: 20 mg/kg PO
Experimental: The second PDX tumor model experiment was conducted to assess the efficacy of VNLG-152R versus VNLG-152E1 following PO administration. When the tumor volumes had reached about 100 mm^3, the mice were randomly divided into three groups of five mice each. The control group received vehicle (PO) and the other two groups received VNLG-152R (20 mg/kg, PO, once daily), and VNLG-152E1 (20 mg/kg, PO, once daily) five days/week. These treatments continued for 15 days and the tumors were measured and processed as described above.

[2] = test system: MDA-MB-231 cells; assay: Real time cell invasion assay (xCELLigence); assay type: cell-based, human; details: 2.5, 5 and 10 μM, 24 h pre-treatment
Experimental: Real-time measurement of cell invasion was performed using the xCELLigence RTCA DP device (ACEA Biosciences, San Diego, CA, USA). MDA-MB-231 cells were treated with VNLG-152 (2.5, 5, and 10 μM) for 24 h, cells being treated with VNLG-152 when they were plated. Subsequently, cells were seeded (75,000/well) onto 16-well microelectronic censored, two chamber Matrigel-coated trans-well plates (CIM-plates) containing the respective drug in serum-free condition. Medium containing 10% serum (chemo-attractant) was added to the bottom wells. Invasion of cells was measured from the interaction of cells with the electrodes on the bottom surface of top chamber and represented as a change in cell index (CI), an arbitrary unit derived from the relative change in electrical impedance across microelectronic sensor arrays. The electrical impedance was captured every 3 min for an experimental duration of 24 h. The rate of invasion is expressed as the CI or the change in electrical impedance at each timepoint. Values are expressed as the ±SEM of the duplicate wells from three independent experiments.

[3] = test system: MDA-MB-231 cells; assay: Multiplex Luminex supernatant cytokine analysis; assay type: cell-based, human; details: 72 h, cell supernatants
Experimental: Supernatants from the MDA-MB-231 (TNBC) cells in Fetal Bovine Serum (FBS) containing media were treated with various concentrations of VNLG-12R for 72 h, were collected, and various cytokines and growth factor concentrations (CLCX-1, IL-6, IL8 and TNF-α) were determined by Luminex multiplex assay kit (Millipore, Billerica, MA, USA) according to the manufacturer’s instructions. The expressions of secreted cytokines were read on Luminex 100 reader. The data was then analyzed using the BioPlex Software (BioRad, Hercules, CA, USA). The Luminex multiplex assays were conducted at the University of Maryland School of Medicine Cytokine Core Laboratory (Baltimore, MD, USA).

[4] = test system: EMT-related proteins; assay: Western blot of EMT-related proteins in MDA-MB-231 and MDA-MB-468 cells; assay type: cell-based, human; details: 24 h
Experimental: MDA-MB-231, MDA-MB-468, MDA-MB-436, MDA-MB-453, HCC-1806, and MFM-223 cells were purchased from American Type Culture Collection (ATCC, Manassas, VA, USA), and authenticated at the Biopolymer/Genomics Core Facility, University of Maryland Baltimore. Cells were tested for mycoplasma contamination at the University of Maryland Marlene and Stewart Greenebaum Cancer Center (UMGCC) Translational Shared Service. Cells were cultured in the recommended media supplemented with 10% FBS and plated 1 day prior to treatment. Cells were treated with the indicated dose and time in the figure at 37 °C in 5% CO2. Protein lysates were harvested in RIPA lysis buffer (Sigma). Western blotting was done as described previously with antibodies described above.

[5] = test system: panel of 6 human TNBC cell lines; assay: MTT cell growth assay, summary over the panel; assay type: cell-based; details: Homo sapiens, 168 h, 7 days
Experimental: Figure 3 In vitro characterization, pharmacokinetics and toxicity profile of VNLG-152R and its two enantiomers. (A) HPLC chromatograms racemic VNLG-152R (left panel) and the resolved enantiomers VNLG-152E1 and VNLG-152E2 (right panel). The conditions of HPLC procedure are presented in Supplementary Materials. (B) Table summarizing GI50 values (µM) each cell line treated with VNLG-152R and its enantiomers. TNBC cell subtypes were treated with listed compound (0.1 nmol/L–100 µmol/L) for 7 days and the GI50 values for the anti-proliferative effects of the compounds were determined from dose response curves (by a nonlinear regression analysis using Graph Pad Prism). Data represents the results from six independent experiments for each cell line. (C) Plasma concentration versus time profile after intravenous (IV, 2 mg/kg each, top panel) or oral (PO, 20 mg/kg each, bottom panel) of VNLG-152R (red), VNLG-152E1 (purple) and VNLG-152E2 (blue) to female CD1 mice. Values represent the mean plasma concentrations from three mice per time point. (D) Table of the pharmacokinetic parameters of various compounds after IV and PO dosing. AUC = area under the curve, T1/2 = elimination half-life, Cmax = maximum plasma concentration, F (%) = oral bioavailability. (E) Effects of VNLG-152R, VNLG-152E1 and VNLG-152E2 on body weight and clinical observations at chronic dose termination of study. Three different doses, i.e., 10, 25, and 50 mg/kg/day (formulated in 40% β-cyclodextrin in saline) of each compound were administered daily by oral gavage for 14 days. Each group consisted of three mice. Loss in body weight, a clinical sign of toxicity was observed during the 14 days of dosing and the maximum tolerated dose (MTD) was estimated following established procedures. Changes in body weight were scored on a scale of 0–4 as follows as described under methods. […]

[6] = test system: MDA-MB-231-Luc cells; assay: Experimental lung metastasis assay; assay type: in vivo, SCID mice; details: 20 mg/kg IP, 2 weeks, IVIS luciferase signal in lung
Experimental: The MDA-MB-231-luc cells were the kind gift of Dr. Stuart Martin (UMB). Cells were grown in DMEM with 10% FBS, hygromycin and G418 to subconfluence (~50–70%) and then trypsinized, washed, and resuspended in PBS. 1 × 10^6 cells were injected IV in a volume of 100 µL. Mice were treated for 14 days with vehicle or VNLG-152 by IP injection at doses of 20 mg/kg. The luciferase signals in the mice were detected and photographed using an IVIS in vivo image system on days 0, 1 and 14 [81].

Which “changes in body weights” value [1] does the source give for `CC1=C(/C=C/C(C)=C/C=C/C(C)=C/C(=O)Nc2ccc(F)cc2)C(C)(C)CCC1n1ccnc1` (racemic) [VNLG-152R, 4-(±)-(1H-imidazol-1-yl)-N-(4-fluorophenyl)-(E)-retinamide] here?
The value was “No changes in body weights were observed”.

What about the TGI ([1]; 5 days per week, 15 days) of the same molecule?
The TGI was 82%.

What about the “invasive ability (cell index)” value [2] of the same molecule?
The value was “significantly lower”.

What about the “secreted IL-6 and IL-8, TNFα and chemokine CXCL1” value [3] of the same molecule?
Its value is “dose-dependent reduction”.

And the “expression of N-Cadherin, β-catenin, MMP-2, MMP-9, Snail, Slug, Vimentin and TCF/ZEB-1” value [4]?
Its value is “concentration-dependent decreases”.

What about the GI50 ([5]; mean over 6 TNBC cell lines, read-out: average GI50) of the same molecule?
Its GI50 is 970 nM.

What about the GI50 ([5]; range over 6 TNBC cell lines, read-out: range of GI50) of the same molecule?
Its GI50 is 620 to 1860 nM.

And the inhibition of metastasis [6]?
Its inhibition of metastasis is ~ 80%.
